Literature values as cited in publication PMC8197769 (Progress in retinal and eye research, 2020).
Read-outs that look alike come from different tables or passages of the source.

Tests used:
[1] = test system: patients with geographic atrophy; details: intravitreal; ref Gensler et al., 2018
[2] = test system: patients with geographic atrophy; details: ref Jaffe et al., 2020
drusen = details: intravitreal injection, preliminary studies; ref Chi et al., 2010
[3] = test system: patients with geographic atrophy; details: ref Holz et al., 2018
[4] = test system: patients with paroxysmal nocturnal hemoglobinuria
[5] = test system: patients with geographic atrophy; details: ref Liao et al., 2020
[6] = test system: patients with geographic atrophy; details: 5 mg monthly vs. sham, 150 patients; ref NCT01527500
[7] = intravitreal injection, phase I; ref NCT01255462

## CO[C@H]1C[C@@H]2CC[C@@H](C)[C@@](O)(O2)C(=O)C(=O)N2CCCC[C@H]2C(=O)O[C@H]([C@H](C)C[C@@H]2CC[C@@H](O)[C@H](OC)C2)CC(=O)[C@H](C)/C=C(\C)[C@@H](O)[C@@H](OC)C(=O)[C@H](C)C[C@H](C)/C=C/C=C/C=C/1C [sirolimus]
[1]
  efficacy for GA: did not suggest efficacy for GA

## avacincaptad pegol
[2]
  endophthalmitis: no cases of endophthalmitis

## compstatin
drusen
  effect on drusen: may cause drusen regression

## lampalizumab: fragment of humanized monoclonal antibody, inhibits Factor D
[3]
  phase III outcome for GA: negative results

## pegcetacoplan
[4]; human, in vivo
  safety during prolonged and systemic clinical intervention: acceptable safety profiles
[4]; phase III, ref Apellis Pharmaceuticals, 2020, Castro et al.
  efficacy in paroxysmal nocturnal hemoglobinuria: showed efficacy
[5]; every other month group (sham 1.2%)
  investigator-determined conversion to exudative AMD: 8.9%
[5]; monthly group (sham 1.2%)
  investigator-determined conversion to exudative AMD: 20.9%

B1: tesidolumab: IgG1 antibody that prevents C5 cleavage (antibody, chains of the INN, looked up, V domains shown)
VH: EVQLVQSGAEVKKPGSSVKVSCKASGGTFSSYAISWVRQAPGQGLEWMGGIGPFFGTANYAQKFQGRVTITADESTSTAYMELSSLRSEDTAVYYCARDTPYFDYWGQGTLVTVSS
VL: SYELTQPLSVSVALGQTARITCSGDSIPNYYVYWYQQKPGQAPVLVIYDDSNRPSGIPERFSGSNSGNTATLTISRAQAGDEADYYCQSFDSSLNAEVFGGGTKLTVL
[6]
  benefit for GA or vision: No benefit
[7]
  safety: No significant safety events were seen
